Reference: patent publication US20110218170A1, “USE OF 2'-DEOXY-4'-THIOCYTIDINE AND ITS ANALOGUES AS DNA HYPOMETHYLATING ANTICANCER AGENTS” (Southern Research Institute, priority 2010, published 2011)
Where two headings read alike, the source gives them in different places.

Tests used:
[1] = tested on: DNMT1; assay: DNMT1 protein levels by western blot in drug-treated KG1a cells; type: cell-based, human
Protocol: Cells were incubated with drugs for the indicated times and analyzed by western blot. (*ns indicates a non-specific band used as a loading control).

[2] = Stability in phosphate buffered saline by reverse phase HPLC (FIG. 4); type: physicochemical; conditions: PBS pH 7.4, 100 μM; for half-life at 100 μM: phosphate buffered saline, samples at 2, 20 and 90 hours
Protocol: One of the primary problems of the currently clinically used DNA hypomethylators 5-aza-dCyd and 5-azacytidine is the rapid degradation of these compounds by ring opening of the 5-azacytosine ring in aqueous solutions. Whether a 4′-thio modification would enhance the stability of 5-azacytosine relative to the 4′-oxonucleoside was tested (FIG. 4). In side-by-side experiments, the compounds were dissolved in PBS (phosphate buffered solution, pH 7.4) at a concentration of 100 μM. A sample was removed from each solution 2, 20, and 90 hours after addition of the drug and the concentrations of 5-aza-T-dCyd or 5-aza-dCyd were determined by reverse phase HPLC.

[3] = tested on: tumors; assay: Anti-tumor activity of 5-aza-T-dCyd in in vivo tumor model (FIG. 6); conditions: mice, q1dx9; tumor size decreased several days after end of dosing
Protocol: (§1) Preliminary in vivo evaluation of the anti-tumor activity of T-dCyd and 5-aza-T-dCyd in mice was also conducted (FIG. 5 and FIG. 6). T-dCyd was tested against human lung NCI-H23 (FIG. 5), and also in DLD-1 colon tumor xenografts (not shown). […] However the 9-day treatment schedule is a classical schedule for a cytotoxic anticancer agent. T-dCyd as a potential DNA hypomethylating agent has not been evaluated in tumor models.
Again, the schedule in this experiment (q1dx9) was also not designed based on the supposed mechanism of action of this agent, but was designed based on a classical cytotoxic nucleoside analog, as in the case of T-dCyd. […] This type of compound might best be used in combination with other chemotherapy as a maintenance therapy. Thus, in the clinic one could envision treatment first with cytotoxic agents to kill a large percentage of rapidly dividing tumor cells, followed by treatment with non-toxic doses of hypomethylating agents for longer time periods. In a similar vein one could envisage treatment with non-toxic DNA hypomethylating agents in chemoprevention settings.

[4] = tested on: KG1a human myeloid leukemia cells; assay: Incorporation into DNA in KG1a human myeloid leukemia cells (FIG. 3); type: cell-based; conditions: 300 nM, 4 h of incubation
[5] = tested on: CEM leukemia cells; assay: Incorporation of [5-3H]-labelled compound into DNA of CEM leukemia cells (FIG. 2); type: cell-based, human; conditions: 100 nM of [5-3H]-labelled compound
Protocol: (§2) In particular, FIG. 2 refers to an experiment where CEM leukemia cells were incubated with 100 nM of [5-^3H]T-dCyd, [5-^3H]dCyd, [5-^3H]araC or [5-^3H]T-araC and the incorporation of compound into the DNA was determined. […] In contrast much less araC (or T-araC) was incorporated into the DNA. Although araCTP (or T araCTP) are also good substrates for DNA polymerases, they are known to inhibit subsequent DNA chain elongation and thereby inhibit DNA replication. […] The concentration of T-dCyd or araC required to inhibit CEM cell growth by 50% after 72 hours of incubation was 2.2 or 0.006 μM, respectively.

[6] = tested on: CEM cell; assay: Inhibition of CEM cell growth; type: cell-based, human; conditions: after 72 hours of incubation, read-out: concentration required to inhibit CEM cell growth by 50%
Protocol: as §2

[7] = tested on: CEM cells; assay: Metabolism of dCyd or T-dCyd in CEM cells; type: in vitro ADME, human; conditions: 100 nM, 1 hour
Protocol: The metabolites that were produced in CEM cells treated with either [5-^3H]dCyd or [5-^3H]T-dCyd were also determined (Table 1). Cells were treated with 100 nM of each compound for 1 hour and the medium and cells were extracted to determine the major metabolites that were formed. The medium was analyzed by reverse phase HPLC to measure the parent compound, deaminated product, or [^3H]-water. The acid-soluble extract was analyzed by strong anion exchange HPLC to measure the intracellular concentration of nucleotide metabolites. The radioactivity in the acid-insoluble fraction represents the amount of compound that was incorporated into DNA. […] (Note: Because dCyd was labeled at the 5 position, the [^3H] was removed from the molecule by thymidylate synthase in the process of adding a methyl group to this position. Accordingly, there will be no radioactivity in thymidine nucleotides generated from [5-^3H]dCyd).

[8] = tested on: human lung NCI-H23; assay: Anti-tumor activity against human lung NCI-H23 tumor xenografts in mice (FIG. 5); type: in vivo
Protocol: as §1

[9] = Maximum tolerated dose (MTD) in mice; conditions: mouse, in vivo
Protocol: as §1

[10] = similar experiments, FIG. 1B or not shown
[11] = 1.3 mg/kg (MTD0.65), 9 day treatment, NCI-H23 tumors in mice

Compound | half-life at 100 μM [2] | effect on DNMT1 protein level [1, 10] | incorporation into DNA [4] | incorporation of compound into the DNA [5] | [3H] in DNA [7] | [3H] in parent compound [7] | also measured
Nc1ncn([C@H]2C[C@H](O)[C@@H](CO)S2)c(=O)n1 [5-aza-T-dCyd, 5-aza-4′-thio-2′-deoxycytidine] | 293 h |  |  |  |  |  | effect on DNMT1 protein level ([1]; doses as low as 0.1 μM, exposed for 72 or 96 h, FIG. 1E): complete depletion of DNMT1; effect on DNMT1 protein level ([1]; similar exposures for as little as 48 h, FIG. 1C): completely depleted DNMT1; stability in PBS relative to 5-aza-dCyd [2]: 5 fold; tumor growth inhibition [3]: substantially inhibited the growth of the tumors
Nc1ncn([C@H]2C[C@H](O)[C@@H](CO)O2)c(=O)n1 [5-azadCyd, 5-aza-2′-deoxycytidine, reference compound] | 67 h | depleting DNMT1 | only a moderate amount |  |  |  | 
Nc1ccn([C@@H]2S[C@H](CO)[C@@H](O)[C@@H]2O)c(=O)n1 [T-araC, 4′-thio-arabinofuranosylcytosine, reference compound] |  | did not deplete DNMT1 |  | much less |  |  | 
Nc1ccn([C@H]2C[C@H](O)[C@@H](CO)S2)c(=O)n1 [T-dCyd, 4′-thio-2′-deoxycytidine] |  |  | rapidly incorporated to very high levels | more T-dCyd was incorporated into the DNA than dCyd | 8% of total | 90% of total | effect on DNMT1 protein level ([1]; 72 h at the 3 μM dose, FIG. 1D): complete depletion of DNMT1; effect on DNMT1 protein level ([1]; 72 hour exposure at low non-toxic doses, FIG. 1A): capable of reducing DNMT1; effect on DNMT1 protein level ([1]; 96 h at the 1 and 3 μM doses, FIG. 1D): complete depletion of DNMT1; IC50 ([6]; Homo sapiens, CCRF-CEM): 2.2 µM; radioactivity recovered as water in the medium, T-dUrd in the medium, or T-dUMP in the acid-soluble pool [7]: none; in vivo anti-tumor activity ([8]; 0.9 mg/kg (MTD0.45) and 0.6 mg/kg (MTD0.3), 9 day treatment schedule): some encouraging in vivo activity; complete cures [8, 11]: 2/6; tumor growth inhibition [8, 11]: substantial growth inhibition; MTD at 9 day [9]: 2 mg/kg
Nc1ccn([C@@H]2O[C@H](CO)[C@@H](O)[C@@H]2O)c(=O)n1 [araC, arabinofuranosylcytosine, reference compound] |  | did not deplete DNMT1 |  | much less |  |  | IC50 [6]: 0.006 µM
Nc1ccn([C@H]2C[C@H](O)[C@@H](CO)O2)c(=O)n1 [dCyd, 2′-deoxycytidine, reference compound] |  |  |  |  | 3% of total | 38% of total | 
